According to the supplement of paper PMC10307832:

Tests used:
Assay in all cases: relative viability (nuclei count vs DMSO), 5 days (fraction); higher = more cells survive
RO-3306 + Dasatinib = compound: C1=CC2=C(C=CC(=C2)C=C3C(=O)NC(=NCC4=CC=CS4)S3)N=C1 [RO-3306] + Cc1nc(Nc2ncc(C(=O)Nc3c(C)cccc3Cl)s2)cc(N2CCN(CCO)CC2)n1 [Dasatinib] (partner 0.075 µM)
Method in brief: (§1)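 Dosing by pin tool came one day after lung cancer cell lines were seeded in 1536-well plates, using either one drug or a fixed anchor-drug dose plus five library-drug doses (not always all listed) in √10 steps. After 5 days, nuclei were counted on 4× images. Relative viability is treated-well nuclei count divided by vehicle-well nuclei count, and values are medians of duplicate plates.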

RO-3306 + Decitabine = compound: C1=CC2=C(C=CC(=C2)C=C3C(=O)NC(=NCC4=CC=CS4)S3)N=C1 [RO-3306] + Nc1ncn([C@H]2C[C@H](O)[C@@H](CO)O2)c(=O)n1 [Decitabine] (partner 2 µM)
Method in brief: as §1

[1] = compound: O=S(=O)(c1ccccc1)N(CC(F)(F)F)c1ccc(C(O)(C(F)(F)F)C(F)(F)F)cc1 + CC1(C)CCC(c2ccc(Cl)cc2)=C(CN2CCN(c3ccc(C(=O)NS(=O)(=O)c4ccc(N[C@H](CCN5CCOCC5)CSc5ccccc5)c(S(=O)(=O)C(F)(F)F)c4)cc3)CC2)C1 [Navitoclax] (partner 0.5 µM)
Method in brief: as §1

[2] = compound: O=S(=O)(c1ccccc1)N(CC(F)(F)F)c1ccc(C(O)(C(F)(F)F)C(F)(F)F)cc1 + CS(=O)(=O)CCNCc1ccc(-c2ccc3ncnc(Nc4ccc(OCc5cccc(F)c5)c(Cl)c4)c3c2)o1 [Lapatinib] (partner 2 µM)
Method in brief: as §1

[3] = compound: O=S(=O)(c1ccccc1)N(CC(F)(F)F)c1ccc(C(O)(C(F)(F)F)C(F)(F)F)cc1 + O=C(CCCCCCC(=O)Nc1ccccc1)NO [Vorinostat] (partner 1 µM)
Method in brief: as §1

Row | Cell Line | relative viability (RO-3306 + Dasatinib; first compound 0.01 µM) | relative viability (RO-3306 + Dasatinib; first compound 0.03162 µM) | relative viability (RO-3306 + Dasatinib; first compound 0.1 µM) | relative viability (RO-3306 + Dasatinib; first compound 0.3162 µM) | relative viability (RO-3306 + Dasatinib; first compound 1 µM) | relative viability (RO-3306 + Decitabine; first compound 0.01 µM) | relative viability (RO-3306 + Decitabine; first compound 0.03162 µM) | relative viability (RO-3306 + Decitabine; first compound 0.1 µM) | relative viability (RO-3306 + Decitabine; first compound 0.3162 µM) | relative viability (RO-3306 + Decitabine; first compound 1 µM) | relative viability ([1]; first compound 0.8 µM) | relative viability ([1]; first compound 2.53 µM) | relative viability ([1]; first compound 8 µM) | relative viability ([2]; first compound 0.8 µM) | relative viability ([2]; first compound 2.53 µM) | relative viability ([2]; first compound 8 µM) | relative viability ([3]; first compound 0.8 µM) | relative viability ([3]; first compound 2.53 µM) | relative viability ([3]; first compound 8 µM)
1 | LC-2-ad | 0.57 | 0.311 | 0.582 | 0.533 | 0.507 | 0.869 | 0.776 | 0.743 | 0.785 | 0.759 | 0.531 | 0.544 | 0.518 | 1.04 | 0.876 | 0.99 | 0.734 | 0.657 | 0.602
2 | PC-3 [JPC-3] | 1.02 | 0.799 | 0.953 | 0.991 | 0.819 | 0.84 | 0.777 | 0.82 | 0.802 | 0.817 | 0.8 | 0.724 | 0.7 | 0.482 | 0.421 | 0.452 |  | 0.637 | 0.895
3 | NCI-H1734 | 0.442 | 0.476 | 0.444 | 0.473 | 0.443 | 0.621 | 0.471 | 0.471 | 0.566 | 0.502 | 1.14 | 0.809 | 0.801 | 1.24 | 1.13 | 0.934 | 1.01 | 0.898 | 0.498
4 | NCI-H520 | 0.168 | 0.195 | 0.178 | 0.195 | 0.162 | 0.568 | 0.542 | 0.469 | 0.501 | 0.554 | 0.943 | 1.3 | 1.38 | 1.07 | 0.84 | 1.01 | 0.847 | 0.678 | 0.77
5 | HOP-62 | 0.709 | 0.516 | 0.633 | 0.757 | 0.504 | 0.229 | 0.239 | 0.207 | 0.222 | 0.249 | 1.19 | 0.999 | 1.09 | 1.18 | 0.812 | 0.798 | 0.716 | 0.508 | 0.522
6 | NCI-H1993 | 0.754 | 0.49 | 0.695 | 0.586 | 0.523 | 0.616 | 0.493 | 0.486 | 0.575 | 0.657 | 0.867 | 0.691 | 0.788 | 0.813 | 0.613 | 0.849 | 0.859 | 0.575 | 0.836
7 | NCI-H2023 | 0.742 | 0.47 | 0.496 | 0.598 | 0.518 | 0.25 | 0.285 | 0.208 | 0.218 | 0.213 | 1.07 | 0.888 | 0.845 | 0.742 | 0.743 | 0.55 | 0.567 | 0.422 | 0.512
8 | NCI-H647 | 0.155 | 0.117 | 0.18 | 0.226 | 0.129 | 0.479 | 0.336 | 0.417 | 0.429 | 0.405 | 1.3 | 1.26 | 1.01 | 1.52 | 1.17 | 1.2 | 0.304 | 0.404 | 0.655
9 | EPLC-272H | 0.365 | 0.193 | 0.384 | 0.237 | 0.299 | 0.367 |  | 0.335 | 0.324 | 0.355 | 1.24 | 1.08 | 0.795 | 1.05 | 0.818 | 0.924 | 0.319 | 0.476 | 0.396
10 | NCI-H1395 | 0.4 | 0.494 | 0.372 | 0.409 | 0.587 | 0.663 | 0.699 | 0.656 | 0.68 | 0.724 | 1.01 | 1.06 | 1.31 | 1.1 | 0.993 | 1.13 | 0.532 | 0.594 | 0.759
11 | NCI-H3122 | 0.823 | 0.751 | 0.835 | 0.787 | 0.857 | 0.406 | 0.345 | 0.379 | 0.461 | 0.42 | 1.04 | 0.964 | 1.06 | 0.975 | 0.897 | 1.03 | 1.01 | 0.948 | 1.19
12 | SK-MES-1 | 0.341 | 0.44 | 0.344 | 0.379 | 0.348 | 0.341 | 0.406 | 0.327 | 0.352 | 0.371 | 1.42 | 1.33 | 1.21 | 0.442 | 0.424 | 0.514 | 1.09 | 1.18 | 0.915
13 | NCI-H322M | 0.252 | 0.259 | 0.257 | 0.255 | 0.244 | 0.591 | 0.675 | 0.721 | 0.717 | 0.762 | 1.29 | 1.12 | 1.2 | 0.684 | 0.602 | 0.655 | 0.883 | 0.842 | 0.869
14 | NCI-H727 | 0.346 |  | 0.413 | 0.402 | 0.523 | 0.834 | 0.751 | 0.891 | 0.888 | 0.846 | 0.387 | 0.407 | 0.507 | 0.844 | 0.646 | 0.738 | 1.18 | 0.853 | 1.03
15 | LU99A | 0.606 | 0.581 | 0.553 | 0.507 | 0.553 | 1.21 | 0.702 | 0.915 | 0.926 | 1 | 1.02 | 0.694 | 0.776 | 1.11 | 1.05 | 0.901 | 0.568 | 0.462 | 0.401
16 | SK-LU-1 | 0.14 | 0.177 | 0.18 | 0.198 | 0.151 | 0.657 | 0.537 | 0.597 | 0.643 | 0.56 | 1.18 | 0.865 | 0.56 | 0.903 | 1.02 | 0.753 | 0.797 | 0.705 | 0.727
17 | 201T | 0.584 | 0.588 | 0.571 | 0.529 | 0.517 | 0.824 | 0.849 | 0.879 | 0.855 | 0.893 | 1.18 | 1.18 | 1.22 | 1.01 | 0.949 | 1.03 | 0.953 | 0.918 | 0.865
